Experimental data from patent publication US5635356A, “Anti-oncoimmunin-M antibodies and uses thereof” (The United States of America as represented by the …, priority 1994, dated 1997).

Test system: Oncoimmunin-M treated HL-60 cells
Assay: Chemotaxis in multiwell microchemotaxis chamber
Type: cell-based, human
Conditions: HL-60 cells exposed to Oncoimmunin-M (2 nM) for two days; f-Met-Leu-Phe 10^-10 to 10^-6 M; 3 hr, 37° C.; FIG. 22C
Procedure: To assess whether the Oncoimmunin-M induced alterations in integrin expression are associated with the induction of a biologic activity which could serve a role in antitumor or antimicrobial function, HL-60 cells that had been exposed to Oncoimmunin-M (2 nM) for two days were assayed for chemotactic ability. Specifically, the treated cells were placed in a multiwell microchemotaxis chamber and assayed for their ability to migrate in response to a gradient of the chemoattractant recombinant human C5a (rHuC5a), recombinant interleukin-8, and the peptide f-Met-Leu-Phe.
Cells were suspended in the serum-free medium (SFM) at a concentration of 5×10^5 cells/ml. Assays in which the total number of cells migrating through the polyvinylpyrrolidone-free polycarbonate membranes (5 μm pores; Nucleopore Corp., Pleasanton, Calif.) were performed for 3 hr in a 37° C. incubator containing 5% CO2. After incubation, nonmigrated cells were wiped off the filters which were then fixed in methanol and stained with Diff-Quik (Dade Diagnostics, Inc., Aguada, Puerto Rico). Migrated cells were counted with an Optomax System 40-10 Image Analyzer (Optomax, Inc., Hollis, N.H., U.S.A.). Random migration was determined by quantifying cell migration to serum-free medium alone.

## CSCC[C@H](NC=O)C(=O)N[C@@H](CC(C)C)C(=O)N[C@@H](Cc1ccccc1)C(=O)O [f-Met-Leu-Phe]
  migratory (chemotactic) response to chemoattractant gradient: no significant response
